Experiments:
[1] = biological target: T1, human tau (hTau) (Homo sapiens, UniProt P10636); assay: Tau clearance in HEK293-hTau cells by Western blotting; type: cell-based
T1 construct: expressed in transfected cells
Method: SH-SY5Y human neuroblastoma cells were cultured in 90% DME/F-12 medium (HyClone, SH30023.01) with 10% fetal bovine serum (FBS) (Biological Industries, 04-001-1ACS) and penicillin (100 U/mL)/ streptomycin (100 μg/mL) in a 37 °C incubator with humidified atmosphere of 5% CO2. Human embryonic kidney 293 cells (HEK293) or HEK293 with stable expression of wild-type full-length human tau (termed as HEK293-hTau) were cultured in 90% DMEM/High Glucose medium (HyClone, SH30022.01) containing 10% FBS and 200 μg/mL G418 (ThermoFisher Scientific, 10131027), in a humidified atmosphere of 5% CO2 at 37 °C. Neofect (DNA transfection reagent, TF20121201) was used for plasmids transfection. The cells were placed onto 6-well or 12-well plates. Plasmids (EGFP-hTau or 3xFlag-hTau or the vector), neofect and Opti-MEM medium (Gibco, 31985-070) were made into a mixture in a ratio of 1 μg: 1 μL : 100 μL and then added into each well of the plate. To inhibit proteasome activity, HEK293-hTau cells were cultured with DMEM/High medium containing 20 μM C004019 with or without 10 μM MG132, or the same volume of vehicle (DMSO) for 24 h at 37 °C. To induce tau hyperphosphorylation, SH-SY5Y cells were cultured with DME/F-12 medium containing 10 μM C004019 with or without 1 μM GFX and 1 μM WO for 24 h at 37 °C.
The cells or hippocampal/cortex tissues were homogenized for ~ 30 min on ice in buffer [50 mM Tris·HCl pH 7.4-7.5, 100 mM NaCl, 1% (vol/vol) Triton X-100, 5 mM EDTA, 1:100 PMSF, 1:1,000 protease inhibitor cocktail containing 4-(2-Aminoethyl)-benzenesulfonyl fluoride hydrochloride, aprotinin, bestatin, leupeptin, E-64, and pepstatin A stored at 4 °C], and then centrifuged at 12,000 × g at 4 °C for 20 min. The supernatant was collected and the protein levels were analyzed using bicinchoninic acid (BCA, KF016, Sigma-Aldrich) by following the manufacturer's instruction (served as soluble protein). The pellet was further incubated with 8% (wt/vol) SDS buffer at 4 °C and then treated by ultrasonic wave to reach a complete resuspension. […] Immunoreactive bands were quantitatively analyzed by Image J2x software.

[2] = test system: hTau transgenic mice; assay: Multiple-doses subcutaneous administration in hTau transgenic mice, behavior and dendritic morphology; type: in vivo, mouse; details: 12 m-old hTau transgenic mice, subcutaneous 3 mg/kg once every 6 days, 5 times
Method: The Open field (OF) test was consisted of a 5 min session in a quadrate chamber (white opaque plastic). The chamber was divided into 16 square regions, a central field (center 4 square regions) and a periphery field. Each mouse was placed in the same position at the start of the test. Behaviors were recorded and analyzed by the video tracking system (Chengdu Taimeng Software Co., Ltd, China).
For novel object recognition (NOR) test, the mice were habituated to a quadrate chamber (white opaque plastic) for 5 min without objects 24 h prior to the test. The chamber was cleaned with 75% ethanol between each habituation period. The day after the mice re-entered the chamber from the same starting point and were given 10 min to familiarize themselves with the object A and object B. After each period the chamber and objects were cleaned with 75% ethanol. The next day after the familiarization period, object B was replaced with noval object C, and the mice were given 10 min to explore both objects. The exploring time in object A (TA) and C (TC) was recorded using the video tracking system. The discrimination index was calculated by (TC-TA)/(TA+TC).
The Elevated plus maze (EPM) test was performed as follows: mice were placed at the junction of the four arms of the maze (white opaque plastic), and started the test from facing an open arm. The chambers were cleaned with 75% ethanol before the next mouse was trained. The entries and duration time in each arm were recorded for 5 min by the video tracking system (Chengdu Taimeng Software Co., Ltd, China). An increase in open arm activity (duration and/or entries) reflects anti-anxiety behavior.
The Morris water maze (MWM) test was conducted to assess the spatial learning and memory. The maze was filled with water and divided into 4 quadrants with a platform placed in one quadrant. The mice were trained to find the hidden platform for 6 consecutive days, and underwent […] training trials (once per quadrant) per day from 14:00 to 20:00 pm. In each training trial, the mouse started from one of four quadrants facing the wall of the pool and the trial ended when the animal climbed on the platform. […] The spatial memory was tested 1 d after the last training by removed the platform. The longer a mouse stayed in the previous platform-located quadrant, the better it scored the spatial memory. A video camera, fixed to the ceiling 1.5 m from the water surface, was used to record the swimming path and the time for mice to find the platform (latency) or to pass through the previous platform-located quadrant each day. The camera was connected to a digital-tracking device attached to an IBM computer (Armonk, NY).
For fear conditioning (FC) test, the mice were placed into a square chamber with a grid floor. On the first day (day 1), each mouse was habituated to the chamber for 3 min, and then a foot shock (0.9 mA, 3 s) was delivered. Three sequential foot shocks at 3 min intervals were applied. Then the mice were returned to their home cages. On the next day (day 2), the mice were exposed to the same chamber without any stimulus for 3 min. The contextual conditioning was assessed by recording freezing behavior during the 3 min exposure. Freezing time during the 3 min was recorded for assessment of memory.
Golgi staining was performed by using a Rapid GolgiStain Kit (FD neurotechnologies, PK401) according to the manufacturer's instructions. Briefly, the animals were sacrificed and perfused for 5 min with PBS. All procedures were performed under dark condition. Brains were dissected out and immersed in impregnation solution (equal volumes of Solutions A and B, containing mercuric chloride, potassium dichromate, and potassium chromate, mixed for 24 h in advance), and stored at room temperature. Impregnation solution was replaced after 24 h. After 4 weeks, brains were transferred to Solution C and stored at 4 °C for 72 h, with the solution replaced after 24 h. […]

T1 sequence (P10636 1-441 isoform P10636-8): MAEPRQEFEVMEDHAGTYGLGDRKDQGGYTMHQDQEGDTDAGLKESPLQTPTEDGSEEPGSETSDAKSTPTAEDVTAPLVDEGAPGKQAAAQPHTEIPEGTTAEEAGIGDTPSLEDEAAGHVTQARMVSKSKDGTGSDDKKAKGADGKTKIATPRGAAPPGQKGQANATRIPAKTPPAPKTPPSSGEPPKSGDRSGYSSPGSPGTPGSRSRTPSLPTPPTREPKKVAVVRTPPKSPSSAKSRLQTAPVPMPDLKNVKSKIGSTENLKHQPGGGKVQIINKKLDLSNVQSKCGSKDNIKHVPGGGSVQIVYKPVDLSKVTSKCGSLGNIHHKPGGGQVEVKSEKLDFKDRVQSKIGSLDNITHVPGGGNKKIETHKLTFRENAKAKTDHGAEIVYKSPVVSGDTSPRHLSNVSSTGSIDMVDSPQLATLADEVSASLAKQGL

## CC(=O)N1CCCN(c2nc(NCCc3cccs3)nc(N(C)CC(=O)NCCOCCOCCOCC(=O)N[C@H](C(=O)N3C[C@H](O)C[C@H]3C(=O)NCc3ccc(-c4scnc4C)cc3)C(C)(C)C)n2)CC1 [C004019]
[1]; HEK293-hTau cells, Western blotting
  total tau (Tau5) and p-tau level: concentration-dependent reduction
[1]; cultured cells, read-out: DC50 (tau degrader)
  DC50: ~5 nM
[2]
  duration time in the open arm, elevated plus maze (EPM): no significant changes were detected
  fear condition (FC) test, freezing index: improved freezing index
  free movement in open field (OF) test: no significant changes were detected
  novel object recognition (NOR) test: increased time exploring new object
[2]; Golgi-cox staining and Sholl analysis
  neurite arborization and spine density in hippocampal DG: significantly increased
[2]; learning trial and probe trial
  Morris water maze (MWM) test, latency: decreased latency to find the platform
